Two molecules from article PMC3773341 (Biology Open, 2013) can be followed below.

The target of assay [1] is T1, BK channel (large-conductance Ca2+-activated K+ channel, BKCa, KCa1.1) (Homo sapiens, UniProt Q12791).
T1 construct: gene KCNMA1
The assay can be described thus: whole-cell patch clamp of endogenous BK current in LNCaP cells; current identity confirmed by si-hBK. It counts as cell-based.

In assay [2] the target is T1, BK channel (large-conductance Ca2+-activated K+ channel, BKCa, KCa1.1). The assay can be described thus: whole-cell patch clamp of T-type-activated BK current in LNCaP-α1H cells ([…] in LNCaP-NE cells). Format: cell-based.

Each structure is given as a SMILES string.

T1 sequence (Q12791 whole entry): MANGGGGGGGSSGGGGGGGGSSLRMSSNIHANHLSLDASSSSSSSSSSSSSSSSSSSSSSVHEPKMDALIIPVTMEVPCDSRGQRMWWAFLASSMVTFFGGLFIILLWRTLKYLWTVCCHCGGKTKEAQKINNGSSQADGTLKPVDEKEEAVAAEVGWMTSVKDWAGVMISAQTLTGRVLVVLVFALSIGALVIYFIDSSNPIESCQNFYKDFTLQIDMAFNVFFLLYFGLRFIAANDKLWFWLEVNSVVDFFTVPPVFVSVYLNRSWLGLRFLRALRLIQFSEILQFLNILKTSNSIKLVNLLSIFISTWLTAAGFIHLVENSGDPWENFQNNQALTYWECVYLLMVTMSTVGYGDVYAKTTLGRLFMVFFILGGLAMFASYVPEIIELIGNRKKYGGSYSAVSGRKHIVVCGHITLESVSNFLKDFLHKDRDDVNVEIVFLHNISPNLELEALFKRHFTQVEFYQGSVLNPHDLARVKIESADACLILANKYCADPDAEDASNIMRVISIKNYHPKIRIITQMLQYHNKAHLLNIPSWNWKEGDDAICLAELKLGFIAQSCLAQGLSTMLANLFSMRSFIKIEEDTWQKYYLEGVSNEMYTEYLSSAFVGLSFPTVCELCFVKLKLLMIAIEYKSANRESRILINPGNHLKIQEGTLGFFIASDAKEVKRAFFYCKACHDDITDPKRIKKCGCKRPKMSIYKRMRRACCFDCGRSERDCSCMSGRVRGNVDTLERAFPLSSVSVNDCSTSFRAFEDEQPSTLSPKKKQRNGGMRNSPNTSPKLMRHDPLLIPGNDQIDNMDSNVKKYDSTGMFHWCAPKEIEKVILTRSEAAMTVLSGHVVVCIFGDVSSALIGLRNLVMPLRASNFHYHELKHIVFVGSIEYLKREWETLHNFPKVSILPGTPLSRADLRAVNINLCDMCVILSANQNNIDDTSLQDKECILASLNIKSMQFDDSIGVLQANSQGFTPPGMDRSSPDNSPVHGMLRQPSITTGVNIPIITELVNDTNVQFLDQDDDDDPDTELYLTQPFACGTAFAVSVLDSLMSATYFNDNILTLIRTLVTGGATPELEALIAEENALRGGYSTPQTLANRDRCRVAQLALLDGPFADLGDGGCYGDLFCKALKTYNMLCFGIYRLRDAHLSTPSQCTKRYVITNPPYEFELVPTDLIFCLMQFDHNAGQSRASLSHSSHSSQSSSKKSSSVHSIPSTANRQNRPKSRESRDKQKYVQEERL

As for `CC(C)(O)[C@H]1O[C@H]2CC[C@@]3(C)[C@@](O)(CC[C@H]4Cc5c([nH]c6ccccc56)[C@@]43C)C2=CC1=O` [Pax, paxillin], the “whole-cell patch clamp of endogenous BK current in LNCaP cells; current identity” value in assay [1] was 1 µM.

For the molecule `CC[N+](CC)(CC)CC` [TEA, tetraethyl ammonium], the concentration for half-maximal inhibition (IC50) in assay [2] stood at 1.14 ± 0.2 mM.
